This note sets out measurements from patent US12492225B2, “Melanocyte-regulating peptides” (IDP DISCOVERY PHARMA, S.L., priority 2019, dated 2025).

For this assay, the system named is B16-F10 melanoma cells. Briefly: Measurement of melanin content in B16-F10 melanoma cells. Conditions: KA at 1 uM; FIG. 1. It counts as cell-based, mouse. The protocol:
B16-F10 melanoma cells were seeded into 25 cm^2 cell culture flask and incubated for 24 h. Then, 0.1 μM α-MSH was added and cells were treated with the aforementioned peptides at doses lower than their respective IC50 for a total of 48 h incubation. After washing twice with phosphate buffered saline, cells were dissolved in 1 mL of 1N NaOH. For measurement of melanin content, 100 μL aliquots of solution were then placed in 96-well plates and the absorbance was measured at 450 nm using microplate reader. Anti-melanin activity was expressed by the percentage of melanin to that of untreated melanoma cells. As positive control Kojic Acid (KA) was used at different concentrations (0.1, 1 and 10 μM).

Take `O=c1cc(CO)occ1O` [KA, kojic acid]: the “reduction of melanin compared with the peptides of the invention (F22) at the same concentration” value is given as “the reduction was substantially lower”.
